The results in this text go back to patent US5478946A, “Guanidino compounds as regulators of nitric oxide synthase” (Abbott Laboratories, priority 1993, dated 1995).

Assay [1] deals with T1, Type I NOS (rat brain cytosol) (Rattus norvegicus, UniProt P29476).
T1 construct: type I isozyme from rat brain cerebellum; from tissue; host or cells: rat brain (cytosol; cerebellum, phosphocellulose-purified)
Description: [3H]-Arginine to [3H]-Citrulline conversion, rat brain cytosol (Type I NOS). The format is biochemical. The following applies: for inhibition at 100 µM: read-out: Percent Inhibition of [3H]-Citrulline Formation, Rat Brain Cytosol; for pIC50: read-out: Inhibition of [3H]-Citrulline Formation IC50, Rat Brain Cytosol. The source says: (§1) The enzyme NO synthase produces EDRF/NO and citrulline from L-arginine (Bredt and Snyder, Proc. Nat'l. Acad. Sci. USA, 1989, 87: 682-5). The enzymatic generation of EDRF/NO is monitored by measuring the conversion of [^3 H]-L-arginine to [^3 H]-L-citrulline. An inhibitor of this specific enzymatic reaction lowers the conversion rate and, thus, the amount of [^3 H]-L-citrulline produced. Likewise, a compound acting as a substrate would compete with L-arginine and thereby lower the conversion rate.
(§2) The conversion of L-arginine to L-citrulline was assayed as reported previously (Bredt and Snyder, Proc. Nat'l Acad Sci USA, 1989, 87: 682-5) with minor modifications. Briefly, samples of partially purified NO synthase, 50-100 μg of protein or 20 μL of cytosol (alternatively cytosolic preparations from RAW 264.7 cells, a murine monocyte-macrophage cell line, induced for 16 hours with 10 μg/mL medium of Lipopolysaccharide (LPS), or partially purified (phosphocellulose column) type I isozyme from rat brain cerebellum, or partially purified isozyme III from bovine aortic endothelial cells (BAE cells)) were incubated for 20 minutes (3 minutes in the cases of purified enzyme preparations) at 25° C. in the presence of 10 μM L-[2,3-^3 H]arginine (55 Ci /mmol) (containing 34 nM (0.2 μCi)), 1 mM NADPH, and 2 Mm CaCl2 in a final volume of 100 μL. The reaction was stopped by adding 1 mL of stop buffer (2 mM EGTA, 2 mM EDTA 20 mM Hepes, pH 5.5). The total volume was then applied to a 1 mL Dowex AG 50 WX-8 column (Na^+ form, Bio-Rad) that had been pre-equilibrated with the stop buffer. L-[2,3-^3 H]Citrulline was eluted (2×) with 0.5 mL of stop buffer and radioactivity was determined by liquid scintillation counting.
(§3) The following Tables present data on the inhibition of [^3 H]-citrulline formation from [^3 H]-L-arginine by the compounds of the invention in various preparations representative of the isoforms of NOS, Types I, II, and III NOS as represented by rat brain cytosol, […] macrophage cell cytosol, and BAE homogenate preparation respectively.

Assay [2] has as its target T2, Type II NOS (RAW macrophage cell cytosol) (Mus musculus, UniProt P29477).
T2 construct: cytosolic preparations from RAW 264.7 cells; endogenous in cells; host or cells: RAW 264.7 cells, LPS-induced for 16 hours
The experiment in a line: [3H]-Arginine to [3H]-Citrulline conversion, RAW cell cytosol (Type II NOS). The format is biochemical, murine. The following applies: LPS induced; for inhibition at 100 µM: read-out: Percent Inhibition of [3H]-Citrulline Formation, RAW Cell Cytosol; for pIC50: read-out: Inhibition of [3H]-Citrulline Formation IC50, RAW Cell cytosol.
Description: as §1, §2, §3

Assay [3] deals with T3, Type III NOS (BAE homogenate preparation) (Bos taurus, UniProt P29473).
T3 construct: partially purified isozyme III from bovine aortic endothelial cells (BAE cells); endogenous in cells; host or cells: bovine aortic endothelial (BAE) cells
The experiment in a line: [3H]-Arginine to [3H]-Citrulline conversion, BAE homogenate preparation (Type III NOS). The following applies: for inhibition at 100 µM: read-out: Percent Inhibition of [3H]-Citrulline Formation, BAE Preparation; for pIC50: read-out: Inhibition of [3H]-Citrulline Formation IC50, BAE Preparation. The format is biochemical, bovine.
Description: as §1, §2, §3

Assay [4] relates to RFL-6 rat fetal lung fibroblast cells. Description: cGMP assay, RFL-6 cells as detectors of EDRF/NO. The format is cell-based. The following applies: presence of superoxide dismutase; 6-well plates. The source says:
In those instances where it is suspected that the test substance is acting as a substrate rather than an inhibitor, the EDRF/NO may be estimated. For this confirmation bioassay, a method for quantification of endothelium-derived relaxing factor (EDRF) is utilized and is described in detail below. This technique, measuring cyclic GMP responses of RFL-6 rat fetal lung fibroblast cells to estimate NO or EDRF is sensitive, simple and quite useful for the evaluation of compounds that regulate EDRF/NO release from various endothelial cells, or other cells or tissues (such as for example RAW cells (induced with LPS) and N1E-115 cells). (cf. Ishii, K., et al., American Journal of Physiology, 1991,261:(2 pt 2) H598-603). The cyclic GMP measured is an indirect measure of the amount of EDRF/NO produced by NO synthase, so compounds that reduce the amount of cyclic GMP produced are termed inhibitors of NO synthase, and those that increase cyclic GMP in the absence of exogenous L-arginine are termed substrates or stimulators of NO synthase.
This is a new bioassay method for detection and quantification of endothelium-derived relaxing factor (EDRF) wherein cyclic GMP responses of RFL-6 rat fetal lung fibroblast cells are utilized to estimate the activity of nitric oxide (NO) and EDRF. […]

pIC50: −log10 of the molar value.

For the molecule `CC(C)(C)OC(=O)N1[C@H](/C=C/CNC(=N)N)COC1(C)C` [Example 22, 3-(1,1-Dimethylethyl)-(R)-4-(3-guanidinopropen-1.E-yl)-2,2-dimethyl-3-oxazolidinecarboxylate], the figures for the inhibition at 100 µM in assay [1], in assay [2] and in assay [3] were 70%, 97% and 50%, respectively. Moreover, the values for the pIC50 in assay [1], in assay [2] and in assay [3] were 4.40, above 4.00 and 4.00, respectively.

As for `N=C(N)NC/C(=C/[C@H](N)CO)Cc1ccccc1` [Example 25, N^G -Guanidinyl-4(S)-Amino-2-benzyl-pent-2,E-ene-5-ol], the inhibition at 100 µM was found to be 80% in assay [1], 20% in assay [2] and 14% in assay [3]. Further, the values for the pIC50 in assay [1], in assay [2] and in assay [3] were 4.40, below 4.00 and below 4.00, respectively.

With `CNC(=N)NC/C(C)=C/[C@H](N)CO` [Example 27, N^G -Methylguanidinyl-4(S)-Amino-2-methyl-pent-2,E-ene-5-ol], the inhibition at 100 µM in assay [1] is 86%; in assay [2] it was 97%; in assay [3], 46%. The pIC50 in assay [1] was 4.70; in assay [2] it was 4.70; in assay [3] it was below 4.00.

For the molecule nitric oxide [NO], the “lowest concentration of NO to which RFL-6 cells responded” value in assay [4] turned out to be 2 nM.
